Measured values reported in patent US12661338B2, “Heterocyclic compounds as modulators of beta-catenin / TCF4 interaction” (AGENCY FOR SCIENCE, TECHNOLOGY AND RESEARCH, priority 2019, dated 2026).
Read-outs that look alike come from different tables or passages of the source.

Experiments:
Assay type in all cases: cell-based
[1] = test system: CRC2001; assay: Viability of primary patient-derived colorectal cancer cell line
[2] = test system: Wnt signalling (TOPFlash reporter, STF3A cells); assay: Wnt STF3A TOPFlash reporter dose response (constitutive Wnt3A)
Procedure: Wnt STF reporter cells (HEK 293 cells stably transfected with TOPFlash reporter) and STF3A reporter cells (STF cells with constitutive secretion of Wnt3A) were kind gifts from David Virshup (Duke-NUS Graduate Medical School, Singapore). HCT116, DLD-1, and SW480 cell lines were obtained from ATCC. The Hippo pathway TEAD reporter (cat. #60618) and Myc signalling pathway reporter (cat. #60520) cells lines were purchased from BPS Bioscience, Inc.
The Wnt STF3A reporter cells were seeded as 20,000 cells in 100 μL culture medium per well in 96-well plates (Corning cat. #3903, Falcon cat. #353072). The next day, 5-fold dilutions of the compounds in DMSO were added to the cells at a final concentration of 1% DMSO. After 24 hr incubation, the viability of the cells was determined with cell counting kit-8 (CCK-8, Dojindo cat. #CK04) cell viability reagent according to the manufacturer's protocol while the TOPFlash reporter activity was determined with Steady-Glo luciferase reagent.
(§1) The average signal from DMSO treated wells was calculated for each plate, and the signal from each treatment well was normalized against the average DMSO signal from the respective plate. The normalized values were plotted against the concentrations tested using GraphPad Prism 5, and the EC50 values were determined through either three- or four-parameter nonlinear regression.

[3] = test system: CRC1489; assay: Viability of primary patient-derived colorectal cancer cell line
[4] = test system: CRC2413; assay: as above
[5] = test system: CRC1671; assay: as above
[6] = test system: Wnt target proteins in HCT116 cells; assay: Western blotting of Wnt target and Wnt pathway proteins in HCT116 cells; settings: 50 μM, 18 hr
Procedure: HCT116 cells were treated with compounds for 18 hr at a final concentration of 50 μM, 1% DMSO. Cells were lysed on ice in RIPA buffer (Thermo cat. #89900) containing cOmplete™ protease inhibitor cocktail (Roche cat. #11697498001) and PhosSTOP phosphatase inhibitor cocktail (Roche cat. #04906837001). 30 μg per sample of total cellular protein was resolved by SDS-PAGE and blotted onto PVDF membrane (Millipore cat. #IPVH00010). Primary antibodies were incubated overnight at 4° C. and the blots were detected with either IRDye 800CW goat anti-rabbit antibody (LI-COR cat. #926-32211) or IRDye 680RD goat anti-mouse antibody (LI-COR cat. #926-68070) at 1:5000 dilution. Signals were visualized with the LI-COR Odyssey CLx imaging system and bands were quantified using LI-COR Image Studio data analysis software. The primary antibodies used were Met (Cell Signalling Technology cat. #8198, 1:1000), cyclin D1 (Cell Signalling Technology cat. #2978, 1:1000), survivin (Santa Cruz cat. #sc-10811, 1:500), ECAD (Cell Signalling Technology cat. #3195, 1:1000), TCF4/TCF7L2 (Cell Signalling Technology cat. #2569, 1:1000), β-cat (Cell Signalling Technology cat. #8480, 1:1000), β-actin (Abcam cat. #ab8226, 1:3000).

[7] = test system: CRC1837; assay: Viability of primary patient-derived colorectal cancer cell line; settings: CRC1837, Liver Met
[8] = test system: CRC1258; assay: as above; settings: CRC1258, Liver Met
[9] = test system: DLD-1 cells; assay: Dose response viability of CRC cells (CellTiter-Glo); settings: Homo sapiens, 24 hr
Procedure: (§2) HCT116, DLD-1, and SW480 cells were seeded as 5,000 cells in 100 μL growth medium per well in 96-well plates (Corning cat. #3903). The next day, 5-fold dilutions of the compounds in DMSO were added to the cells at a final concentration of 1% DMSO. After 24 hr incubation, the viability of the cells was determined with CellTiter-Glo luminescent cell viability reagent (Promega cat. #G7573) according to the manufacturer's protocol.
as §1

[10] = test system: SW480 cells; assay: as above; settings: Homo sapiens, 24 hr
Procedure: as §2, §1

[11] = test system: HCT116 cells; assay: as above; settings: Homo sapiens, HCT-116, 24 hr
Procedure: as §2, §1

[12] = test system: HCT116 cells; assay: Colony formation assay; settings: HCT116, 30 μM, 7 days
Procedure: FIG. 4 depicts the inhibit growth by hit compounds and their effects on stemness of Wnt driven cells. (FIG. 4A) Growth curves of HCT116 cells treated daily with compounds at 10 μM. One-way repeated measures ANOVA with Dunnett's multiple comparison test was carried out to determine the significance between compound treatment and DMSO control. *P<0.05, ***P<0.001. (FIG. 4B) Effects of hit compounds on colony formation of HCT116 cells. HCT116 cells were grown in 6-well plates and treated with either DMSO or the compounds at 30 μM for 7 days, following which the cells were fixed and stained with crystal violet. The number of colonies obtained were counted. Two-tailed Student's t-test was carried out between compound treatment and DMSO control. ***P<0.001. (FIG. 4C) Effects of hit compounds on spheroid formation of HCT116 cells. HCT116 cells were grown in ultra-low attachment 96-well plates and treated with either DMSO or the compounds at 30 µM for 14 days, following which the number of spheroids ≥200 μm in size was determined. Two-tailed Student's t-test was carried out between compound treatment and DMSO control. ***P<0.001, **P<0.01. Scale bar represents 1 mm. (FIG. 4D) NSG mice xenografted with HCT116 cells were treated with vehicle control (n=6) or 50 mg/kg GB1874 (n=6) via i.p. every other day for 2 weeks. Tumor volumes were monitored over time. […]

[13] = test system: HCT116 cells; assay: Proliferation assay (CellTiter-Glo); settings: 10 μM daily
Procedure: HCT 116 cells were seeded as 3,000 cells in 100 μL growth medium per well in 96-well plates (Corning cat. #3903) and allowed to attached overnight. Cells were then treated continuously with compounds at a final concentration of 10 μM, 0.1% DMSO, for 4 days with daily medium change. Cell proliferation each day was determined using CellTiter-Glo luminescent cell viability assay (Promega cat. #G7573) according to the manufacturer's protocol.

CCc1ccc(OCc2nnc(SC3CCCC3=O)n2C(C)c2ccccc2)cc1 (stereo not drawn) [GB1874]
EC50 [1]: 25 µM | IC50 ([2]; Table 1, STF3A reporter cells, 24 hr, read-out: IC50 Wnt (STF3A)): 26 µM | IC50 ([2]; Table 3, STF3A reporter cell line, read-out: STF3A Inhibition IC50): 27 µM | EC50 [3]: 41 µM | EC50 [4]: 16 µM | EC50 [5]: 30 µM | expression of Wnt target genes c-Met, cyclin D1 and survivin (Western blotting) [6]: most effective at reducing the expression of these proteins | expression of β-cat, ECAD and TCF4 (Western blotting) [6]: minimal effect on the expression of β-cat itself, or the expression of its partner proteins, such as ECAD and TCF4 | EC50 [7]: 21 µM | EC50 [8]: 27 µM | EC50 [9]: 28 µM | EC50 [10]: 24 µM | EC50 [11]: 45 µM | colony forming efficiency [12]: markedly reduce survival of the cancer stem-like cells | growth of HCT116 cells [13]: effectively inhibited the growth of HCT116 cells
